Measured values from patent US8865655B2, “Depsipeptides and their therapeutic use” (Karus Therapeutics Limited, priority 2006, dated 2014).

Test system: HDAC (Hela Nuclear Extract)
Experiment: In vitro HDAC fluorescent activity assay (Biomol kit, Fluor de Lys substrate) with Hela Nuclear Extract
Format: biochemical
Conditions: compounds reduced with 30 mM DTT prior to analysis; diluted Hela Nuclear Extract; 37° C. for 1 hour; mean of duplicate samples
Description: In vitro HDAC assays were performed using a HDAC fluorescent activity assay kit (Biomol, UK) according to the manufacturer's instructions. Compounds were reduced prior to analysis; 1 mM compound was reduced with 30 mM DTT in DMSO overnight at room temperature, protected from light. Reactions were then set up in a 96-well plate. For each reaction 10 μl compound (5× required concentration in assay buffer) was mixed with […] diluted Hela Nuclear Extract (30-fold in assay buffer). Serial dilutions were set up for each compound. Reactions containing Hela extract only and assay buffer only were also set up. 25 μl diluted Fluor de Lys™ substrate (100-fold in assay buffer) was added to each reaction, which were then incubated at 37° C. for 1 hour. The reaction was stopped by addition of 50 μl Fluor de Lys™ Developer (20-fold dilution in assay buffer, plus TSA diluted 100-fold). The reactions were then incubated at room temperature for 10 minutes before fluorescence was measured using a CytoFluor II Fluorescence Multiwell Plate Reader and CytoFluor II software with filters set at […] for excitation and […] for emission. Inhibition of in vitro HDAC activity was determined for mean values of duplicate samples as percentages relative to HeLa extract only reactions. IC50 values were calculated using GraphPad Prism software.

Row | SMILES | IC50 [µM]
1 | CC(C)[C@H]1NC(=O)[C@@H](Cc2ccccc2)NC(=O)[C@@H](C)NC(=O)C[C@@H](/C=C/CCS)OC(=O)CNC1=O [Compound 16, (6R,9R,12R,16S)-9-Benzyl-6-isopropyl-16-((E)-4-mercapto-but-1-enyl)-12-methyl-1-oxa-4,7,10,13-tetraaza-cyclohexadecane-2,5,8,11,14-pentaone] | 0.047 ± 0.0099
2 | CC(=O)SCC/C=C/[C@@H]1CC(=O)N[C@H](C)C(=O)N[C@H](Cc2ccccc2)C(=O)N[C@H](C(C)C)C(=O)NCC(=O)O1 [Compound 17, Thioacetic acid S-[(E)-4-((6R,9R,12R,16S)-9-benzyl-6-isopropyl-12-methyl-2,5,8,11,14-pentaoxo-1-oxa-4,7,10,13-tetraaza-cyclohexadec-16-yl)-but-3-enyl]ester] | 0.126 ± 0.0053
